Test results: patent publication US6921530B1, “Low dose IL-2 for potentiation of immunity” (Cornell Research Foundation, Inc., priority 1999, dated 2005)
Several values for one entry are separate records, joined by “and”; a condition that tells them apart may be missing. Equal entries are not always repeated.

Legend:
[1] = tested on: HIV p24-reactive T cells and NK cells; test: Activation markers after 18 h whole blood activation with HIV p24 (flow cytometry); format: cell-based, human
Text: FIG. 4 Expression of activation markers of CD4+ T cells and CD4− T cells after stimulation with HIV p24. Vertical axis=CD4, upper row horizontal axis=CD69, middle row=CD25, lower row=IFN-γ. A=subject #1, B=subject #2, C=subject #3, and D=subject #8. Numbers in right quadrants represent the % of CD4+ (upper) and CD4− (lower) T cells that reacted with the monoclonal antibody directed against the respective activation marker. The numbers in the column on the right represent the mean±SEM of the percentage positive cells from all 4 subjects. The values for control cultures, which received monoclonal antibodies reactive with accessory molecules alone (CD28 & CD49d) without HIV p24, were subtracted from the plots and percentages shown.
To identify activated cells, whole blood (1 ml) was cultured for 18 hours with the co-stimulatory antibodies anti-CD28 and anti-CD49d, and HIV p24 antigen (1 μg/ml, Research Diagnostics, Inc., Flanders N.J.) and cytomegalovirus antigen (1 μg/ml, Advanced Biotechnologies, Columbia, Md.). At the end of the incubaton the erythrocytes were lysed using FACSLysing Solution™ (9 ml). The cells were then either frozen at −70° C. in 2 ml RPMI 1640 medum with 10% Dimethyl Sulfoxide (Sigma, St. Louis, Mo.) or permeabilized with FACSPerm Solution™ (2 ml). Thereafter the cells were reacted with anti-CD3-PerCP, anti-CD4-PE, anti-CD8-PE, anti-CD56-PE, anti-CD69-FITC, anti-CD25-FITC, and anti-IFN-γ-FITC. All antibodies were from Becton Dickinson.
FIG. 5 Expression of interferon γ (IFN-γ) by CD-3+ and CD3− lymphocytes. A. Cells examined for size and granularity (left panel), CD3 expression (middle panel), and CD8 expression (right panel). B. Expression of IFN-γ and CD56 by CD3+ cells (gate R2), according to CD8− cells (gate R4, left panels), CD8 dim (gate R5, middle panels), and CD8+ (gate R6, right panels). Control cultures stimulated only with accessory antibodies (upper panels, HIV p24-stimulated cultures (lower panels). C. Expression of IFN-γ and CD56 by CD3− cells (gate R3), according to CD8− cells (gate R4, left panels), CD8dim (gate 5, middle panels) and CD8+ (gate R6, right panels). Control cultures stimulated only with accessory antibodies (upper panes, antiCD28, CD49d), HIV p-24-stimulated cultures (lower panels). Numbers in upper quadrants represent the percentages of CD56− and CD56+ cells that also reacted with anti-IFN-γ. To examine the activation of T cells and NK cells together, the cells were reacted with anti-CD3-PerCP, anti-CD8-PE, and anti-CD56-FITC, together with anti-IFN-γ-APC, all from Becton Dickinson.
To examine the HIV specific reactivity of CD4+ T cells, we performed an 18-hour activation of whole blood with HIV p24 followed by a 4-hour incubation with Brefeldin A to inhibit secretion. Subsequently, the cells were examined by flow cytometry after reaction with fluorochrome-conjugated monoclonal antibodies. Shown in FIG. 4 are the results from experiments performed with blood from the subjects who underwent a second treatment interruption when they had experienced the second CD8+ T lymphocytosis and had reached a stable concentration of plasma virus. Only CD3+ T cells were examined. […] In addition, subjects #1, 2 and 8 also expressed IFN-γ (mean 2.0%±1.2% SEM), while subject #3 had reactivity just above the limits of detection (0.2%). Also depicted in FIG. 4 are the results of the activation markers expressed by CD4− T cells, which are all CD8+, as determined by direct analysis for CD8 expression. There were also CD4− T cells stimulated to express CD69 (mean 3.2%±2.1% SEM) and CD25 (mean 1.9%±0.9% SEM). Moreover, CD4− T cells from subjects #1 and 2 also expressed IFN-γ, whereas the cells from subject 3 and 8 were at the level of detection (0.1%).
It was unexpected to find CD3+, CD4− cells capable of expressing surface markers of activation, and as well, producing detectable intracellular IFN-γ after HIV p24 stimulation. […]

HCV [2] = conditions: 1-2 MIU s.c. daily; cited from earlier work
HCV [3] = conditions: cited from earlier work
HBV = conditions: cited from earlier work
[4] = 4 subjects after second treatment interruption, mean ± SEM
[5] = subject #1, HIV antigen activated

Interleukin-2 [IL-2]
CD4+ T cells stimulated by HIV p24 to express CD25 [1, 4]: 15.5%±2.1% and 15.5% | CD4+ T cells stimulated by HIV p24 to express CD69 [1, 4]: 4.3%±0.45 | CD4− T cells stimulated by HIV p24 to express CD25 [1, 4]: 1.9%±0.9% | CD4− T cells stimulated by HIV p24 to express CD69 [1, 4]: 3.2%±2.1% | CD4− T cells expressing IFN-γ ([1]; subject 3 and 8, at the level of detection): 0.1% | CD3-, CD8-dim cells that are CD56+ producing IFN-γ [1, 5]: 28% | CD3−, CD8− cells that express CD56 producing IFN-γ [1, 5]: 33% | CD4+ T cells stimulated by HIV p24 to express IFN-γ ([1]; subject #3, just above the limits of detection): 0.2% | CD4+ T cells stimulated by HIV p24 to express IFN-γ ([1]; subjects #1, 2 and 8, mean ± SEM): 2.0%±1.2% | subjects showing a decrease in ALT (HCV [2]): 70% | dose best tolerated and most effective (HCV [3]; 33 subjects, s.c., 12 weeks, no IFN): 2×10^6 CT/day | sustained virologic response (HCV [3]; in vivo): No sustained virologic response was found | biochemical response rate (normalization of ALT) at the end of treatment (HCV [3]; preferred dose, 12 weeks): 24% | biochemical response rate 6 months following a 12 week course (HCV [3]; preferred dose): 12% | subjects with 50% reduction in HBV viral titer (HBV; 9×10^6 CU s.c. weekly for three weeks, then 1.8×10^6 CU twice a week for three months): 4/7 | subjects with response (HBV; doses up to 3.6×10^6 CU/day SC qd for eight weeks): 5/30 | subsequent decrease in ALT levels (HBV; following the transient increase): 30% | transient increase in ALT levels (HBV; in vivo): 30%
